IC50 data for 23 compounds are collected here from patent US20240279221A1, “HETEROCYCLIC COMPOUNDS AND METHODS OF USE” (Schrödinger, Inc., priority 2021, published 2024).

The structures appear in SMILES notation.

Sequence of SOS1:KRAS (G12C) interaction (Q07889 564-1049, stated change not applied): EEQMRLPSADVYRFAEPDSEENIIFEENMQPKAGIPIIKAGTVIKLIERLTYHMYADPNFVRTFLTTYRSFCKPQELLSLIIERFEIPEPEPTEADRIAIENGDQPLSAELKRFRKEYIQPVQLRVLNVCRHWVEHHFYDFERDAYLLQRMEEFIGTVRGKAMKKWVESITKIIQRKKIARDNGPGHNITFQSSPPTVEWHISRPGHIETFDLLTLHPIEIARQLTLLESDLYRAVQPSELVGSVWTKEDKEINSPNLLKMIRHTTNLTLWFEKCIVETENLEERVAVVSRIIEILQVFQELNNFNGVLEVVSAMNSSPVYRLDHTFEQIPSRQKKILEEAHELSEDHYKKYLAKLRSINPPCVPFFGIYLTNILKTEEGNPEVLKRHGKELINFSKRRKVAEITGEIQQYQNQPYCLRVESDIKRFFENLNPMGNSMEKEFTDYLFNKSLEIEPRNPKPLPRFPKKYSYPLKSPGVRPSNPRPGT

The target in this assay is SOS1:KRAS (G12C) interaction (Homo sapiens (Human), UniProt Q07889). Kind of assay: SOS1-KRas(G12C) FRET Assay. Type of assay: binding. The settings on record: 0.5 nM His10-SOS1 (res. 564-1049), 2.5 nM GST-KRAS (res. 1-169, G12C); read-out: SOS-KRas(G12C) FRET IC50. How it is done:
Inhibition of the SOS1:KRAS interaction was measured using purified GST-tagged KRAS (res. 1-169, G12C, purified based on Hillig, et al., Proc Natl Acad Sci USA (2019); 116(7):2551-2560) and recombinant His10-SOS1 (res. 564-1049; purified based on Hillig, et al.). The final assay was performed at 20 uL with 0.5 nM SOS1 protein and 2.5 nM KRAS protein in a buffer of PBS, 0.1% BSA, 5 mM MgCl2, 0.0025% Igepal, 100 mM KF, 5 mM DTT in a white 384 square well OptiPlate (PerkinElmer, Cat. 6007290). A 2× KRAS working solution was prepared in an assay buffer containing 5 nM GST-KRAS G12C and 2 nM anti-GST-Eu(K) (Cisbio, Cat. 61GSTKLA) and pre-incubated for 15 minutes at 25° C. Compounds were serially diluted in 100% DMSO from 2 mM (positive control, compound I-13, PCT Publ. No. WO2018/115380) or 20 mM and then diluted 1:20 in assay buffer before incubation with a solution of SOS1 protein mixed 1:5 with anti-6His-XL665 FRET donor (Cisbio, Cat. 61HISXL) for 15 minutes at 25° C. before addition of 2× KRAS working solution. The final DMSO concentration is 0.5%. Plates were incubated at RT for 2 hrs before the FRET signal was measured using Envision at emission 665 nm and 615 nm. FRET signal was converted to percentage of protein-protein interaction using the following equation:
[formula] • C: signal with compound treatment • P: signal for positive control (DMSO) • N: signal for negative control (no SOS1 added) • IC50 and Hill coefficients were obtained using Graph Pad Prism (Graph Pad software, Inc, USA) with non-linear regression analysis.
Consider `CC(=O)N1CC[C@](n2cc3c(N[C@H](C)c4cccc5c(F)coc45)nn(C)c(=O)c3cc2=O)(C(F)(F)F)C1` (single isomer, unassigned) [Example 173], for which the IC50 turned out to be 2790 nM.
Then `C[C@@H](Nc1nn(C)c(=O)c2cc(=O)n(C3CC3)cc12)c1cccc2ccccc12` [Example 1, (R)-6-cyclopropyl-2-methyl-4-((1-(naphthalen-1-yl)ethyl)amino)-2,6-dihydropyrido[3,4-d]pyridazine-1,7-dione], with 1030 nM; and `CCn1nc(N[C@H](C)c2cccc(C(F)(F)F)c2C)c2cn(C3CC3)c(=O)cc2c1=O` [Example 8, (R)-6-cyclopropyl-2-ethyl-4-((1-(2-methyl-3-(trifluoromethyl)phenyl)ethyl)amino)-2,6-dihydropyrido[3,4-d]pyridazine-1,7-dione], with 1310 nM.
In the case of `Cc1c([C@@H](C)Nc2nn(C)c(=O)c3cc(=O)n(C4CCN(C)CC4)cc23)cccc1C(F)(F)F` [Example 23, (R)-2-methyl-4-((1-(2-methyl-3-(trifluoromethyl)phenyl)ethyl)amino)-6-(1-methylpiperidin-4-yl)-2,6-dihydropyrido[3,4-d]pyridazine-1,7-dione] it was 1950 nM.
Take `COc1c(=O)n(C2CCOCC2)cc2c(N[C@H](C)c3cccc(C(C)(F)F)c3F)nn(C)c(=O)c12` [Example 37, (R)-4-((1-(3-(1,1-difluoroethyl)-2-fluorophenyl)ethyl)amino)-8-methoxy-2-methyl-6-(tetrahydro-2H-pyran-4-yl)-2,6-dihydropyrido[3,4-d]pyridazine-1,7-dione]: the IC50 stood at 30.4 nM.
Regarding `C[C@H](Nc1nn(C)c(=O)c2cc(=O)n(C3CCOCC3)cc12)c1cccc2sccc12` [Example 63, (S)-4-((1-(benzo[b]thiophen-4-yl)ethyl)amino)-2-methyl-6-(tetrahydro-2H-pyran-4-yl)-2,6-dihydropyrido[3,4-d]pyridazine-1,7-dione], the IC50 is more than 10000 nM.
Then `C[C@H](Nc1nn(C)c(=O)c2cc(=O)n(C3CC3)cc12)c1cccc2sccc12` [Example 65, (S)-4-((1-(benzo[b]thiophen-4-yl)ethyl)amino)-6-cyclopropyl-2-methyl-2,6-dihydropyrido[3,4-d]pyridazine-1,7-dione], with more than 100000 nM; and `COc1c(=O)n(C2CC2)cc2c(N[C@H](C)c3cccc(C(F)F)c3F)nn(C)c(=O)c12` [Example 85, (R)-6-cyclopropyl-4-((1-(3-(difluoromethyl)-2-fluorophenyl)ethyl)amino)-8-methoxy-2-methyl-2,6-dihydropyrido[3,4-d]pyridazine-1,7-dione], with 192 nM; and `C[C@@H](Nc1nn(C)c(=O)c2c(OCCN(C)C)c(=O)n(C3(C(F)F)CC3)cc12)c1cccc(C(F)F)c1F` [Example 86, (R)-4-((1-(3-(difluoromethyl)-2-fluorophenyl)ethyl)amino)-6-(1-(difluoromethyl)cyclopropyl)-8-(2-(dimethylamino)ethoxy)-2-methyl-2,6-dihydropyrido[3,4-d]pyridazine-1,7-dione], with 35.3 nM.
Then `C[C@@H](Nc1nn(C)c(=O)c2c(OC3CC(F)(F)C3)c(=O)n(C3(C(F)F)CC3)cc12)c1cccc(C(F)F)c1F` [Example 87, (R)-8-(3,3-difluorocyclobutoxy)-4-((1-(3-(difluoromethyl)-2-fluorophenyl)ethyl)amino)-6-(1-(difluoromethyl)cyclopropyl)-2-methylpyrido[3,4-d]pyridazine-1,7(2H,6H)-dione], with 118 nM; and `C[C@@H](Nc1nn(C)c(=O)c2c(OC3COC3)c(=O)n(C3(C(F)F)CC3)cc12)c1cccc(C(F)F)c1F` [Example 88, (R)-4-((1-(3-(difluoromethyl)-2-fluorophenyl)ethyl)amino)-6-(1-(difluoromethyl)cyclopropyl)-2-methyl-8-(oxetan-3-yloxy)pyrido[3,4-d]pyridazine-1,7(2H,6H)-dione], with 83.5 nM; and `C[C@@H](Nc1nn(C)c(=O)c2c(O[C@H]3C[C@H](F)C3)c(=O)n(C3(C(F)F)CC3)cc12)c1cccc(C(F)F)c1F` [Example 89, 4-(((R)-1-(3-(difluoromethyl)-2-fluorophenyl)ethyl)amino)-6-(1-(difluoromethyl)cyclopropyl)-8-((1r,3R)-3-fluorocyclobutoxy)-2-methylpyrido[3,4-d]pyridazine-1,7(2H,6H)-dione], with 122 nM.
In the case of `C[C@@H](Nc1nn(C)c(=O)c2c(OCC3COC3)c(=O)n(C3(C(F)F)CC3)cc12)c1cccc(C(F)F)c1F` [Example 90, (R)-4-((1-(3-(difluoromethyl)-2-fluorophenyl)ethyl)amino)-6-(1-(difluoromethyl)cyclopropyl)-2-methyl-8-(oxetan-3-ylmethoxy)-2,6-dihydropyrido[3,4-d]pyridazine-1,7-dione] it was 59.7 nM; in that of `C[C@@H](Nc1nn(C)c(=O)c2cc(=O)n(C3CC3)cc12)c1ccc2c(c1)CCCC2` [Example 101, (R)-6-cyclopropyl-2-methyl-4-((1-(5,6,7,8-tetrahydronaphthalen-2-yl)ethyl)amino)-2,6-dihydropyrido[3,4-d]pyridazine-1,7-dione], more than 100000 nM; in that of `C[C@H](Nc1nn(C)c(=O)c2cc(=O)n(C3CC3)cc12)c1ccc2c(c1)CCCC2` [Example 102, (S)-6-cyclopropyl-2-methyl-4-((1-(5,6,7,8-tetrahydronaphthalen-2-yl)ethyl)amino)-2,6-dihydropyrido[3,4-d]pyridazine-1,7-dione], 3790 nM.
For `C[C@H](Nc1nn(C)c(=O)c2cc(=O)n(C3CC3)cc12)c1cccc(C(F)(F)CO)c1F` [Example 103, (S)-6-cyclopropyl-4-((1-(3-(1,1-difluoro-2-hydroxyethyl)-2-fluorophenyl)ethyl)amino)-2-methyl-2,6-dihydropyrido[3,4-d]pyridazine-1,7-dione], the IC50 turned out to be 7800 nM.
In the case of `C[C@@H](Nc1nn(C)c(=O)c2cc(=O)n(C3CC3)cc12)c1cccc(C(F)(F)CO)c1F` [Example 104, (R)-6-cyclopropyl-4-((1-(3-(1,1-difluoro-2-hydroxyethyl)-2-fluorophenyl)ethyl)amino)-2-methyl-2,6-dihydropyrido[3,4-d]pyridazine-1,7-dione], the IC50 is 37 nM.
In the case of `C[C@H](Nc1nn(C)c(=O)c2cc(=O)n(C3CC3)cc12)c1cccc(C(F)(F)C(=O)N(C)C)c1F` [Example 105, (S)-2-(3-(1-((6-cyclopropyl-2-methyl-1,7-dioxo-1,2,6,7-tetrahydropyrido[3,4-d]pyridazin-4-yl)amino)ethyl)-2-fluorophenyl)-2,2-difluoro-N,N-dimethylacetamide] it was more than 10000 nM.
In the case of `C[C@@H](Nc1nn(C)c(=O)c2cc(=O)n(C3CC3)cc12)c1cccc(C(F)(F)C(=O)N(C)C)c1F` [Example 106, (R)-2-(3-(1-((6-cyclopropyl-2-methyl-1,7-dioxo-1,2,6,7-tetrahydropyrido[3,4-d]pyridazin-4-yl)amino)ethyl)-2-fluorophenyl)-2,2-difluoro-N,N-dimethylacetamide] it was 366 nM.
Then `CNC(=O)C(F)(F)c1cccc([C@@H](C)Nc2nn(C)c(=O)c3cc(=O)n(C4CC4)cc23)c1F` [Example 107, (R)-2-(3-(1-((6-cyclopropyl-2-methyl-1,7-dioxo-1,2,6,7-tetrahydropyrido[3,4-d]pyridazin-4-yl)amino)ethyl)-2-fluorophenyl)-2,2-difluoro-N-methylacetamide], with 271 nM; and `CNC(=O)C(F)(F)c1cccc([C@H](C)Nc2nn(C)c(=O)c3cc(=O)n(C4CC4)cc23)c1F` [Example 108, (S)-2-(3-(1-((6-cyclopropyl-2-methyl-1,7-dioxo-1,2,6,7-tetrahydropyrido[3,4-d]pyridazin-4-yl)amino)ethyl)-2-fluorophenyl)-2,2-difluoro-N-methylacetamide], with more than 10000 nM.
As to `COC(C)(C)C(F)(F)c1cccc([C@@H](C)Nc2nn(C)c(=O)c3cc(=O)n(C4CC4)cc23)c1F` [Example 109, (R)-6-cyclopropyl-4-((1-(3-(1,1-difluoro-2-methoxy-2-methylpropyl)-2-fluorophenyl)ethyl)amino)-2-methyl-2,6-dihydropyrido[3,4-d]pyridazine-1,7-dione], the IC50 stood at 120 nM.
Then `COC(C)(C)C(F)(F)c1cccc([C@@H](C)Nc2nn(C)c(=O)c3cc(=O)n(C4(C(F)F)CC4)cc23)c1F` [Example 110, (R)-4-((1-(3-(1,1-difluoro-2-methoxy-2-methylpropyl)-2-fluorophenyl)ethyl)amino)-6-(1-(difluoromethyl)cyclopropyl)-2-methyl-2,6-dihydropyrido[3,4-d]pyridazine-1,7-dione], with 48.1 nM.

Usually IC50 stands for the point on the concentration scale where inhibition reaches its midpoint.
